Tests used:
Experiment in all cases: Test F preemergence test
Details in all cases: scale 0 to 100
[1] = system: Canada horseweed; format: in vivo, Conyza canadensis
Method in brief: (§1)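 Test chemicals in a non-phytotoxic solvent mixture containing a surfactant were applied preemergence to sown seeds or postemergence to sugarcane plants. Treated plants and controls were held in a greenhouse for 14 to 21 days, then visually evaluated against controls.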

[2] = system: pitted morningglory; format: in vivo, Ipomoea lacunosa
Method in brief: as §1

[3] = system: Virginia dayflower; format: in vivo, Commelina virginica
Method in brief: as §1

[4] = system: common mallow; format: in vivo, Malva sylvestris
Method in brief: as §1

[5] = system: Russian thistle; format: in vivo, Salsola kali
Method in brief: as §1

[6] = system: annual bluegrass; format: in vivo, Poa annua
Method in brief: as §1

[7] = system: prickly sida; format: in vivo, Sida spinosa
Method in brief: as §1

[8] = system: field bindweed; format: in vivo, Convolvulus arvensis
Method in brief: as §1

[9] = system: itchgrass; format: in vivo, Rottboellia cochinchinensis
Method in brief: as §1

[10] = system: common sowthistle; format: in vivo, Sonchus oleraceous
Method in brief: as §1

[11] = system: naked crabgrass; format: in vivo, Digitaria nuda
Method in brief: as §1

[12] = system: green foxtail; format: in vivo, Setaria viridis
Method in brief: as §1

[13] = system: guineagrass; format: in vivo, Panicum maximum
Method in brief: as §1

[14] = system: common purslane; format: in vivo, Portulaca oleracea
Method in brief: as §1

[15] = system: common groundsel; format: in vivo, Senecio vulgaris
Method in brief: as §1

[16] = system: johnsongrass; format: in vivo, Sorghum halepense
Method in brief: as §1

[17] = system: dallisgrass; format: in vivo, Paspalum dilatatum
Method in brief: as §1

Cc1cc[n+]([O-])c([S+]([O-])Cc2c(C(F)(F)F)nn(C)c2Cl)c1 (racemic) [Compound 20]
Plant response rating, Horseweed ([1]; 8 g ai/ha, preemergence): 0 | Horseweed plant response rating ([1]; 62 g ai/ha, Preemergence): 0 | Plant response rating, Horseweed ([1]; Preemergence, 16 g ai/ha): 0 | Plant response rating, Horseweed ([1]; Preemergence, 31 g ai/ha): 0 | Plant response rating, Morningglory ([2]; 8 g ai/ha, preemergence): 0 | Morningglory plant response rating ([2]; 62 g ai/ha, Preemergence): 40 | Plant response rating, Morningglory ([2]; Preemergence, 16 g ai/ha): 0 | Plant response rating, Morningglory ([2]; Preemergence, 31 g ai/ha): 15 | Plant response rating, Dayflower ([3]; 8 g ai/ha, preemergence): 0 | Dayflower plant response rating ([3]; 62 g ai/ha, Preemergence): 60 | Plant response rating, Dayflower ([3]; Preemergence, 16 g ai/ha): 0 | Plant response rating, Dayflower ([3]; Preemergence, 31 g ai/ha): 0 | Plant response rating, Mallow ([4]; 8 g ai/ha, preemergence): 0 | Mallow plant response rating ([4]; 62 g ai/ha, Preemergence): 60 | Plant response rating, Mallow ([4]; Preemergence, 16 g ai/ha): 0 | Plant response rating, Mallow ([4]; Preemergence, 31 g ai/ha): 25 | Plant response rating, Russian Thistle ([5]; Preemergence, 16 g ai/ha): 0 | Plant response rating, Bluegrass ([6]; 8 g ai/ha, preemergence): 0 | Bluegrass plant response rating ([6]; 62 g ai/ha, Preemergence): 40 | Plant response rating, Bluegrass ([6]; Preemergence, 16 g ai/ha): 0 | Plant response rating, Bluegrass ([6]; Preemergence, 31 g ai/ha): 0 | Plant response rating, Prickly Sida ([7]; 8 g ai/ha, preemergence): 0 | Prickly Sida plant response rating ([7]; 62 g ai/ha, Preemergence): 60 | Plant response rating, Prickly Sida ([7]; Preemergence, 16 g ai/ha): 0 | Plant response rating, Prickly Sida ([7]; Preemergence, 31 g ai/ha): 20 | Plant response rating, Field Bindweed ([8]; 8 g ai/ha, preemergence): 0 | Field Bindweed plant response rating ([8]; 62 g ai/ha, Preemergence): 15 | Plant response rating, Field Bindweed ([8]; Preemergence, 16 g ai/ha): 0 | Plant response rating, Field Bindweed ([8]; Preemergence, 31 g ai/ha): 0 | Plant response rating, Itchgrass ([9]; 8 g ai/ha, preemergence): 0 | Itchgrass plant response rating ([9]; 62 g ai/ha, Preemergence): 70 | Plant response rating, Itchgrass ([9]; Preemergence, 16 g ai/ha): 0 | Plant response rating, Itchgrass ([9]; Preemergence, 31 g ai/ha): 15 | Plant response rating, Sowthistle ([10]; 8 g ai/ha, preemergence): 0 | Plant response rating, Sowthistle ([10]; 16 g ai/ha, preemergence): 65 | Sowthistle plant response rating ([10]; 62 g ai/ha, Preemergence): 50 | Plant response rating, Sowthistle ([10]; Preemergence, 31 g ai/ha): 0 | Plant response rating, Crabgrass, Naked ([11]; 8 g ai/ha, preemergence): 75 | Crabgrass, Naked plant response rating ([11]; 62 g ai/ha, Preemergence): 95 | Plant response rating, Crabgrass, Naked ([11]; Preemergence, 16 g ai/ha): 75 | Plant response rating, Crabgrass, Naked ([11]; Preemergence, 31 g ai/ha): 80 | Plant response rating, Foxtail, Green ([12]; 8 g ai/ha, preemergence): 0 | Foxtail, Green plant response rating ([12]; 62 g ai/ha, Preemergence): 75 | Plant response rating, Foxtail, Green ([12]; Preemergence, 16 g ai/ha): 10 | Plant response rating, Foxtail, Green ([12]; Preemergence, 31 g ai/ha): 40 | Plant response rating, Guineagrass ([13]; 8 g ai/ha, preemergence): 0 | Guineagrass plant response rating ([13]; 62 g ai/ha, Preemergence): 95 | Plant response rating, Guineagrass ([13]; Preemergence, 16 g ai/ha): 0 | Plant response rating, Guineagrass ([13]; Preemergence, 31 g ai/ha): 90 | Plant response rating, Purslane ([14]; 8 g ai/ha, preemergence): 0 | Purslane plant response rating ([14]; 62 g ai/ha, Preemergence): 25 | Plant response rating, Purslane ([14]; Preemergence, 16 g ai/ha): 15 | Plant response rating, Purslane ([14]; Preemergence, 31 g ai/ha): 15 | Plant response rating, Groundsel ([15]; 8 g ai/ha, preemergence): 0 | Groundsel plant response rating ([15]; 62 g ai/ha, Preemergence): 0 | Plant response rating, Groundsel ([15]; Preemergence, 16 g ai/ha): 0 | Plant response rating, Groundsel ([15]; Preemergence, 31 g ai/ha): 0 | Plant response rating, Johnsongrass ([16]; 8 g ai/ha, preemergence): 0 | Johnsongrass plant response rating ([16]; 62 g ai/ha, Preemergence): 90 | Plant response rating, Johnsongrass ([16]; Preemergence, 16 g ai/ha): 50 | Plant response rating, Johnsongrass ([16]; Preemergence, 31 g ai/ha): 60 | Plant response rating, Dallisgrass ([17]; 8 g ai/ha, preemergence): 0 | Dallisgrass plant response rating ([17]; 62 g ai/ha, Preemergence): 75 | Plant response rating, Dallisgrass ([17]; Preemergence, 16 g ai/ha): 0 | Plant response rating, Dallisgrass ([17]; Preemergence, 31 g ai/ha): 20

Cc1cc[n+]([O-])c(S(=O)(=O)C(Cl)c2c(C(F)(F)F)nn(C)c2Cl)c1 (racemic) [Compound 22]
Horseweed plant response rating ([1]; 62 g ai/ha, Preemergence): 0 | Horseweed plant response rating ([1]; 125 g ai/ha, preemergence): 100 | Plant response rating, Horseweed ([1]; Preemergence, 16 g ai/ha): 0 | Plant response rating, Horseweed ([1]; Preemergence, 31 g ai/ha): 0 | Morningglory plant response rating ([2]; 62 g ai/ha, Preemergence): 0 | Morningglory plant response rating ([2]; 125 g ai/ha, preemergence): 20 | Plant response rating, Morningglory ([2]; Preemergence, 16 g ai/ha): 0 | Plant response rating, Morningglory ([2]; Preemergence, 31 g ai/ha): 0 | Dayflower plant response rating ([3]; 62 g ai/ha, Preemergence): 40 | Dayflower plant response rating ([3]; 125 g ai/ha, preemergence): 100 | Plant response rating, Dayflower ([3]; Preemergence, 16 g ai/ha): 0 | Plant response rating, Dayflower ([3]; Preemergence, 31 g ai/ha): 0 | Mallow plant response rating ([4]; 62 g ai/ha, Preemergence): 65 | Mallow plant response rating ([4]; 125 g ai/ha, preemergence): 65 | Plant response rating, Mallow ([4]; Preemergence, 16 g ai/ha): 0 | Plant response rating, Mallow ([4]; Preemergence, 31 g ai/ha): 0 | Russian Thistle plant response rating ([5]; 125 g ai/ha, preemergence): 100 | Bluegrass plant response rating ([6]; 62 g ai/ha, Preemergence): 30 | Bluegrass plant response rating ([6]; 125 g ai/ha, preemergence): 50 | Plant response rating, Bluegrass ([6]; Preemergence, 16 g ai/ha): 0 | Plant response rating, Bluegrass ([6]; Preemergence, 31 g ai/ha): 0 | Prickly Sida plant response rating ([7]; 62 g ai/ha, Preemergence): 40 | Prickly Sida plant response rating ([7]; 125 g ai/ha, preemergence): 80 | Plant response rating, Prickly Sida ([7]; Preemergence, 16 g ai/ha): 0 | Plant response rating, Prickly Sida ([7]; Preemergence, 31 g ai/ha): 40 | Field Bindweed plant response rating ([8]; 62 g ai/ha, Preemergence): 0 | Field Bindweed plant response rating ([8]; 125 g ai/ha, preemergence): 35 | Plant response rating, Field Bindweed ([8]; Preemergence, 16 g ai/ha): 0 | Plant response rating, Field Bindweed ([8]; Preemergence, 31 g ai/ha): 0 | Itchgrass plant response rating ([9]; 62 g ai/ha, Preemergence): 0 | Itchgrass plant response rating ([9]; 125 g ai/ha, preemergence): 60 | Plant response rating, Itchgrass ([9]; Preemergence, 16 g ai/ha): 0 | Plant response rating, Itchgrass ([9]; Preemergence, 31 g ai/ha): 0 | Sowthistle plant response rating ([10]; 62 g ai/ha, Preemergence): 90 | Sowthistle plant response rating ([10]; 125 g ai/ha, preemergence): 100 | Plant response rating, Sowthistle ([10]; Preemergence, 31 g ai/ha): 90 | Crabgrass, Naked plant response rating ([11]; 62 g ai/ha, Preemergence): 80 | Crabgrass, Naked plant response rating ([11]; 125 g ai/ha, preemergence): 100 | Plant response rating, Crabgrass, Naked ([11]; Preemergence, 16 g ai/ha): 40 | Plant response rating, Crabgrass, Naked ([11]; Preemergence, 31 g ai/ha): 75 | Foxtail, Green plant response rating ([12]; 62 g ai/ha, Preemergence): 20 | Foxtail, Green plant response rating ([12]; 125 g ai/ha, preemergence): 95 | Plant response rating, Foxtail, Green ([12]; Preemergence, 16 g ai/ha): 0 | Plant response rating, Foxtail, Green ([12]; Preemergence, 31 g ai/ha): 15 | Guineagrass plant response rating ([13]; 62 g ai/ha, Preemergence): 90 | Guineagrass plant response rating ([13]; 125 g ai/ha, preemergence): 100 | Plant response rating, Guineagrass ([13]; Preemergence, 16 g ai/ha): 60 | Plant response rating, Guineagrass ([13]; Preemergence, 31 g ai/ha): 80 | Purslane plant response rating ([14]; 62 g ai/ha, Preemergence): 30 | Purslane plant response rating ([14]; 125 g ai/ha, preemergence): 90 | Plant response rating, Purslane ([14]; Preemergence, 16 g ai/ha): 0 | Plant response rating, Purslane ([14]; Preemergence, 31 g ai/ha): 30 | Groundsel plant response rating ([15]; 62 g ai/ha, Preemergence): 50 | Groundsel plant response rating ([15]; 125 g ai/ha, preemergence): 98 | Plant response rating, Groundsel ([15]; Preemergence, 16 g ai/ha): 0 | Plant response rating, Groundsel ([15]; Preemergence, 31 g ai/ha): 50 | Johnsongrass plant response rating ([16]; 62 g ai/ha, Preemergence): 60 | Johnsongrass plant response rating ([16]; 125 g ai/ha, preemergence): 100 | Plant response rating, Johnsongrass ([16]; Preemergence, 16 g ai/ha): 0 | Plant response rating, Johnsongrass ([16]; Preemergence, 31 g ai/ha): 50 | Dallisgrass plant response rating ([17]; 62 g ai/ha, Preemergence): 90 | Dallisgrass plant response rating ([17]; 125 g ai/ha, preemergence): 100 | Plant response rating, Dallisgrass ([17]; Preemergence, 16 g ai/ha): 0 | Plant response rating, Dallisgrass ([17]; Preemergence, 31 g ai/ha): 20

Source: US20100298141A1, “SUBSTITUTED PYRIDINE N-OXIDE HERBICIDES” (E. I. DU PONT DE NEMOURS AND COMPANY, priority 2007, published 2010)
